Laboratory results as given in article PMC7554340, “A Novel Dual-Targeted α-Helical Peptide With Potent Antifungal Activity Against Fluconazole-Resistant Candida albicans Clinical Isolates” (Frontiers in Microbiology, 2020).
Converted amounts (≈) assume the structure as drawn. Like-named read-outs stand apart in the source and are kept apart here. No end group written: not given here.

Legend:
[1] = system: C. albicans cgmcc 2.2086; assay: Antifungal activity assay (broth microdilution, MIC/MFC); type: cell-based, Candida albicans
[2] = system: C. tropicalis cgmcc 2.1975; assay: as above; type: cell-based, Candida tropicalis
[3] = system: C. parapsilosis cgmcc 2.3989; assay: as above; type: cell-based, Candida parapsilosis
[4] = system: C. albicans strains; assay: Geometric mean of MIC values against all tested C. albicans; type: cell-based, Candida albicans
[5] = system: C. albicans cgmcc 2.2086; assay: Membrane potential assay, DiSC3(5); type: cell-based, Candida albicans; settings: 0.5 × MIC
Description: The alteration of membrane potential in peptide-treated C. albicans was detected using the membrane potential-sensitive fluorescent probe, 3,3′-dipropylthiadicarbocyanine iodide [DiSC3(5)] (Sigma-Aldrich, Shanghai, China), as previously described ([Qi et al., 2010]). In brief, C. albicans cells in mid-logarithmic growth-phase were harvested and suspended to an OD600 of 0.05 with 5-mM 4-(2-hydroxyethyl)-1-piperazineethanesulfonic acid buffer (pH 7.4, containing 20-mM glucose). After the addition of 0.4-μM DiSC3(5), samples were incubated for 90 min in the dark to obtain a stable reduction in fluorescence, and then, potassium chloride (4 M) was added to the cell suspension to give a final concentration of 100 mM. Subsequently, 2 ml of cell suspension was added to a 1-cm quartz cuvette and mixed with peptides at different concentrations. The changes in fluorescence were recorded for 900 s with an F-4500 fluorescence spectrophotometer (Hitachi, Japan) at excitation and emission wavelengths of 622 and 670 nm, respectively.

[6] = system: C. albicans 56452; settings: 56452, 48 h; for MIC: pH 7
[7] = system: C. albicans 56214; settings: 56214, 48 h; for MIC: pH 7
[8] = system: C. albicans 14936; settings: 14936, 48 h; for MIC: pH 7
[9] = system: C. albicans 17546; settings: 17546, 48 h; for MIC: pH 7
[10] = system: C. albicans 58288; settings: 58288, 48 h; for MIC: pH 7
[11] = system: C. albicans sp3902; settings: sp3902, 48 h; for MIC: pH 7
[12] = system: C. albicans sp3903; settings: sp3903, 48 h; for MIC: pH 7
[13] = system: C. albicans sp3931; settings: sp3931, 48 h; for MIC: pH 7
[14] = system: C. albicans sp3876; settings: sp3876, 48 h; for MIC: pH 7
[15] = system: Candida strains; settings: 48 h
[16] = system: IPEC-J2 cells
[17] = system: PMEC cells
[18] = system: human erythrocytes; assay: Hemolysis assay; settings: minimal hemolytic concentration inducing 10% hemolysis of human erythrocytes; 1 h, 37°C, hemoglobin at 570 nm; probit regression; three independent experiments
[19] = system: IPEC-J2 and PMEC cells; assay: Cytotoxicity MTT assay, statements for both cell lines; settings: 24 h, 1-64 μM
[20] = system: human erythrocytes
[21] = system: IPEC-J2 and PMEC cells
[22] = system: C. albicans cgmcc 2.2086; type: cell-based, Candida albicans
[23] = system: C. albicans 56452; assay: microbe, parasite or virus in culture; settings: Candida albicans, 56452, 48 h
[24] = system: C. albicans 56214; assay: microbe, parasite or virus in culture; settings: Candida albicans, 56214, 48 h
[25] = system: C. albicans 14936; assay: microbe, parasite or virus in culture; settings: Candida albicans, 14936, 48 h
[26] = system: C. albicans 17546; assay: microbe, parasite or virus in culture; settings: Candida albicans, 17546, 48 h
[27] = system: C. albicans 58288; assay: microbe, parasite or virus in culture; settings: Candida albicans, 58288, 48 h
[28] = system: C. albicans sp3902; assay: microbe, parasite or virus in culture; settings: Candida albicans, SP3902, 48 h
[29] = system: C. albicans sp3903; assay: microbe, parasite or virus in culture; settings: Candida albicans, SP3903, 48 h
[30] = system: C. albicans sp3931; assay: microbe, parasite or virus in culture; settings: Candida albicans, SP3931, 48 h
[31] = system: C. albicans sp3876; assay: microbe, parasite or virus in culture; settings: Candida albicans, SP3876, 48 h
[32] = 50 μl of MIC wells plated on YPD agar, 28°C, 48 h, lowest concentration that completely killed fungal cells, consensus of at least three independent experiments

## CC[C@H](C)[C@H](NC(=O)CN)C(=O)NCC(=O)N[C@@H](C)C(=O)N[C@H](C(=O)N[C@@H](CC(C)C)C(=O)N[C@@H](CCCCN)C(=O)N[C@H](C(=O)N[C@@H](CC(C)C)C(=O)N[C@H](C(=O)N[C@H](C(=O)NCC(=O)N[C@@H](CC(C)C)C(=O)N1CCC[C@H]1C(=O)N[C@@H](C)C(=O)N[C@@H](CC(C)C)C(=O)N[C@H](C(=O)N[C@@H](CO)C(=O)N[C@@H](Cc1c[nH]c2ccccc12)C(=O)N[C@H](C(=O)N[C@@H](CCCCN)C(=O)N[C@@H](CCCNC(=N)N)C(=O)N[C@@H](CCCCN)C(=O)N[C@@H](CCCNC(=N)N)C(=O)N[C@@H](CCC(N)=O)C(=O)N[C@@H](CCC(N)=O)C(N)=O)[C@@H](C)CC)[C@@H](C)CC)[C@@H](C)O)[C@@H](C)O)C(C)C)C(C)C [Melittin, reference compound]
[1]; cgmcc 2.2086, 48 h
  MFC: 8 µM (≈ 22.8 µg/mL)
[1]; cgmcc 2.2086, 48 h, pH 7
  MIC: 4 µM (≈ 11.4 µg/mL)
[2]; cgmcc 2.1975, 48 h
  MFC: 8 µM (≈ 22.8 µg/mL)
[2]; cgmcc 2.1975, 48 h, pH 7
  MIC: 4 µM (≈ 11.4 µg/mL)
[3]; cgmcc 2.3989, 48 h
  MFC: 2 µM (≈ 5.69 µg/mL)
[3]; cgmcc 2.3989, 48 h, pH 7
  MIC: 2 µM (≈ 5.69 µg/mL)
[4]
  GM: 4.59 µM
[5]
  cytoplasmic membrane depolarization, melittin against RF3 (in words): stronger membrane depolarization
[6]
  MFC: 8 µM (≈ 22.8 µg/mL)
  MIC: 8 µM (≈ 22.8 µg/mL)
[7]
  MFC: 4 µM (≈ 11.4 µg/mL)
  MIC: 4 µM (≈ 11.4 µg/mL)
[8]
  MFC: 8 µM (≈ 22.8 µg/mL)
  MIC: 4 µM (≈ 11.4 µg/mL)
[9]
  MFC: 8 µM (≈ 22.8 µg/mL)
  MIC: 8 µM (≈ 22.8 µg/mL)
[10]
  MFC: 4 µM (≈ 11.4 µg/mL)
  MIC: 4 µM (≈ 11.4 µg/mL)
[11]
  MFC: 2 µM (≈ 5.69 µg/mL)
  MIC: 2 µM (≈ 5.69 µg/mL)
[12]
  MFC: 4 µM (≈ 11.4 µg/mL)
  MIC: 4 µM (≈ 11.4 µg/mL)
[13]
  MFC: 8 µM (≈ 22.8 µg/mL)
  MIC: 8 µM (≈ 22.8 µg/mL)
[14]
  MFC: 4 µM (≈ 11.4 µg/mL)
  MIC: 4 µM (≈ 11.4 µg/mL)

## KIGKVLLVKGIKKIGKVL-NH2 [KV3]
[1]; cgmcc 2.2086, 48 h
  MFC: 32 µM
[1]; cgmcc 2.2086, 48 h, pH 7
  MIC: 32 µM
[2]; cgmcc 2.1975, 48 h
  MFC: 16 µM
[2]; cgmcc 2.1975, 48 h, pH 7
  MIC: 16 µM
[3]; cgmcc 2.3989, 48 h
  MFC: 32 µM
[3]; cgmcc 2.3989, 48 h, pH 7
  MIC: 32 µM
[6]
  MFC: 64 µM
  MIC: 32 µM
[7]
  MFC: 32 µM
  MIC: 32 µM
[8]
  MFC: >64 µM
  MIC: >64 µM
[9]
  MFC: 64 µM
  MIC: 64 µM
[10]
  MFC: 64 µM
  MIC: 64 µM
[11]
  MFC: 64 µM
  MIC: 64 µM
[12]
  MFC: 64 µM
  MIC: 64 µM
[13]
  MFC: 64 µM
  MIC: 64 µM
[14]
  MFC: 32 µM
  MIC: 16 µM
[15]
  MIC values on Candida strains (range): 16 to 64 µM
[16]; IPEC-J2 cells, MTT, 24 h treatment, 1-64 μM, probit regression
  IC50: > 64 µM
[17]; PMEC cells, MTT, 24 h treatment, 1-64 μM, probit regression
  IC50: > 64 µM
[18]
  HC10: >64 µM
[19]
  cytotoxic effects (in words): negligible cytotoxic effects

## RIGRFLLFRGIRRIGRFL-NH2 [RF3]
[1]; [32]
  MFC: 8 µM
[1]; cgmcc 2.2086, 48 h, pH 7
  MIC: 8 µM
[2]; [32]
  MFC: 8 µM
[2]; cgmcc 2.1975, 48 h, pH 7
  MIC: 8 µM
[3]; [32]
  MFC: 16 µM
[3]; cgmcc 2.3989, 48 h, pH 7
  MIC: 16 µM
[6]
  MFC: 8 µM
  MIC: 8 µM
[7]
  MFC: 8 µM
  MIC: 4 µM
[8]
  MFC: 8 µM
  MIC: 8 µM
[9]
  MFC: 16 µM
  MIC: 8 µM
[10]
  MFC: 8 µM
  MIC: 8 µM
[11]
  MFC: 8 µM
  MIC: 8 µM
[12]
  MFC: 8 µM
  MIC: 8 µM
[13]
  MFC: 8 µM
  MIC: 8 µM
[14]
  MFC: 4 µM
  MIC: 4 µM
[20]
  HC10: > 64 µM
[16]; 24 h
  IC50: 59.8 µM
[17]; 24 h
  IC50: 54 µM
[21]
  cytotoxicity at 64 μM (in words): sharp rise in cytotoxicity

## OC(Cn1cncn1)(Cn1cncn1)c1ccc(F)cc1F [FLU, fluconazole]
[1]; Candida albicans, CGMCC2, 50 μl of MIC wells plated on YPD agar, 28°C, 48 h, lowest concentration that completely killed fungal cells, consensus of at least three independent experiments
  MFC: 4 µM (≈ 1.23 µg/mL)
[1]; Candida albicans, CGMCC2, broth microdilution, RPMI-MOPS pH 7.0, 28°C, 48 h, lowest concentration inhibiting 99% of growth (A492)
  MIC: 2 µM (≈ 0.613 µg/mL)
[2]; Candida tropicalis, CGMCC2, 50 μl of MIC wells plated on YPD agar, 28°C, 48 h, lowest concentration that completely killed fungal cells, consensus of at least three independent experiments
  MFC: 32 µM (≈ 9.8 µg/mL)
[2]; Candida tropicalis, CGMCC2, broth microdilution, RPMI-MOPS pH 7.0, 28°C, 48 h, lowest concentration inhibiting 99% of growth (A492)
  MIC: 4 µM (≈ 1.23 µg/mL)
[3]; Lodderomyces parapsilosis, CGMCC2, 50 μl of MIC wells plated on YPD agar, 28°C, 48 h, lowest concentration that completely killed fungal cells, consensus of at least three independent experiments
  MFC: 8 µM (≈ 2.45 µg/mL)
[3]; Lodderomyces parapsilosis, CGMCC2, broth microdilution, RPMI-MOPS pH 7.0, 28°C, 48 h, lowest concentration inhibiting 99% of growth (A492)
  MIC: 4 µM (≈ 1.23 µg/mL)
[22]
  change of MIC after serial passage: eightfold
[23]
  MFC: > 256 µM
[23]; pH 7
  MIC: > 256 µM
[24]
  MFC: > 256 µM
[24]; pH 7
  MIC: > 256 µM
[25]
  MFC: > 256 µM
[25]; pH 7
  MIC: 32 µM (≈ 9.8 µg/mL)
[26]
  MFC: > 256 µM
[26]; pH 7
  MIC: > 256 µM
[27]
  MFC: > 256 µM
[27]; pH 7
  MIC: 8 µM (≈ 2.45 µg/mL)
[28]
  MFC: > 256 µM
[28]; pH 7
  MIC: 16 µM (≈ 4.9 µg/mL)
[29]
  MFC: 64 µM (≈ 19.6 µg/mL)
[29]; pH 7
  MIC: 16 µM (≈ 4.9 µg/mL)
[30]
  MFC: 64 µM (≈ 19.6 µg/mL)
[30]; pH 7
  MIC: 1 µM (≈ 0.306 µg/mL)
[31]
  MFC: > 256 µM
[31]; pH 7
  MIC: > 256 µM
